Measured values taken from paper PMC9015527 (Chemistry (Weinheim an Der Bergstrasse, Germany), 2021).

Assays:
[1] = test system: SARS-CoV-2 isolate MUC-IMB-1/2020; assay: microbe, parasite or virus in culture; assay type: cell-based
in vitro [2] = conditions: human, Caco-2
in vitro [3] = conditions: simian (monkey)
[4] = test system: SARS-CoV-2 isolate MUC-IMB-1/2020; assay type: cell-based

Structure (SMILES): CCN(CC)CCCC(C)Nc1ccnc2cc(Cl)ccc12 (stereo not shown) [CQ, chloroquine]
- SI (Vero 76, mAb-dsRNA) [1]: >14
- EC50 ([1]; Severe acute respiratory syndrome coronavirus 2, Vero 76, read-out: EC50 (Vero 76, mAb-dsRNA)): 2.2 ± 0.9 µM
- CC50 (in vitro [2]): 41.7 ± 2.5 µM
- CC50 (in vitro [3]; CC50 (Vero 76, mAb-S)): > 100 µM
- CC50 (in vitro [3]; CC50 (Vero 76, mAb-dsRNA)): > 30 µM
- SI (Vero 76, mAb-S) [4]: >32.3
- SI (Caco-2) (SARS-CoV-2 d6-YFP): 3.2
